Entries after “also recorded” stand apart in the source; their conditions may differ. Blank lines part the entries; values can stand above or below the compound they belong to.
How the values were obtained:
SPPL2b = target: T1, SPPL2b (Homo sapiens, UniProt Q8TCT7); assay: Cell-based SPPL2b cleavage assay, stable SPPL2b/FBA overexpressing HEK 293 cell line (ELISA); conditions: 16 h
T1 construct: expressed in transfected cells
T1 sequence (Q8TCT7 26-592): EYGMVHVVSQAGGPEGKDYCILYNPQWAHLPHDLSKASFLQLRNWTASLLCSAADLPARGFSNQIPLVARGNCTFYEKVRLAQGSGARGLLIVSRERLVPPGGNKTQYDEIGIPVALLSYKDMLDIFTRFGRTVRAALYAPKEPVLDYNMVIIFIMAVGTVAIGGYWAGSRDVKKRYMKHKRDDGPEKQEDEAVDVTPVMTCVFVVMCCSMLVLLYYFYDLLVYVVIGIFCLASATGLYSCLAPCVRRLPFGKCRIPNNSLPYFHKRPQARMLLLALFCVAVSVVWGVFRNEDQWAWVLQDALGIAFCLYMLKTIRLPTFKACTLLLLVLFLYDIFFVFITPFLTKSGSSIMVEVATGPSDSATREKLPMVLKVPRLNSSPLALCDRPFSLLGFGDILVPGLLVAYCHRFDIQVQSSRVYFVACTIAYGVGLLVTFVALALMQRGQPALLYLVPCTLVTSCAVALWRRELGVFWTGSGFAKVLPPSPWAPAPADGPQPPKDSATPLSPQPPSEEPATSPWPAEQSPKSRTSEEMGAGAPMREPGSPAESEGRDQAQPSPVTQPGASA
Protocol: It is known that SPP/SPPLs can be inhibited by select GSIs (Ran et al, 2015). Here, we tested the effect of various GSIs on the SPP/SPPL family members SPPL2a, SPPL2b, and SPP. We co‐transfected SPPLs with the BRI2 based chimeric SPP/SPPL substrate that we have referred to as FBA into HEK 293t cells. SPPL‐specific inhibitor (ZLL)2‐ketone was used as positive control. DAPT was not tested here as we and others have previously reported it had no effect on SPP activity at concentration up to 100 μM (Weihofen et al, 2003). […] Dose responses of BMS‐906024, RO4929097, and PF‐3084014 were performed with a similar strategy, but a stable SPPL2b/FBA overexpressing HEK 293 cell line was used instead of transient transfection (Fig 8B). […] Table 3 compares the GSIs’ potencies on γ‐secretase and SPPL2b. The average of IC50s on cNOTCH1sub, cNOTCH2sub, cNOTCH4sub, and APP was used as the GSI's potency on γ‐secretase.
SPPL2a, SPPL2b, SPP, and chimeric substrate FBA were generated as previously described (Ran et al, 2015). A20 cells (TIB‐208; ATCC, Manassas, VA, USA) were cultured in RPMI‐1640 medium (ATCC) supplied with 10% fetal bovine serum, 1% penicillin/streptomycin, and 0.05 mM 2‐mercaptoethanol (Life Technologies). Various concentrations of GSIs and (ZLL)2‐ketone as indicated in figures were applied to transfected HEK 293t cells at 70–90% confluence or A20 cells at a density of 5 × 10^5 cells/ml with fresh media in 48‐well format for 16 h. Cells and conditioned media were used for WB, IP, and ELISA.
Sandwich ELISAs used for Aβ detection were performed as previously described (Murphy et al, 1999; Ran et al, 2014). Briefly, Aβ and Aβ‐like peptides in conditioned media were captured with Ab5 antibody and detected with horseradish peroxidase labeled mAb 4G8 (Biolegend). Synthetic Aβ1‐40 was used as standard. All ELISAs were developed with TMB substrate (KPL, Gaithersburg, Maryland, USA). Bis‐Tris precast gels (Biorad, Hercules, CA, USA) were used for all SDS–PAGE. […] The supernatants were collected, and protein concentrations were determined by Bradford Assay. […]

APP = assay: Endogenous APP-CTF accumulation in MDA-MB-231 cells (Western blot); type: cell-based; conditions: for APP CTF increase / APP CTF level / accumulation at 100 nM: MDA-MB-231 (231 cells), 100 nM, triplicate; for APP CTF increase: vs DMSO; for concentration from which APP‐CTF process is inhibited: MDA-MB-231, 16 h
Protocol: To extend the study to a more physiological system, we assessed endogenous NOTCH1 cleavage inhibition using the triple‐negative breast cancer line MDA‐MB‐231 (Fig 6A). Full‐length blots are shown in source data for Fig 6. NOTCH1 cleavage was detected by Western blotting using the Cell Signaling neo‐epitope NICD antibody. […] The inhibition of endogenous APP in MDA‐MB‐231 cells was also tested by detecting accumulation of APP COOH‐terminal fragments (APP‐CTFs). […] Figure 6D summarized the APP‐CTF band intensities normalized for DMSO group. The original blots are available in source data for Fig 6.
Values are mean ± SD of three tests. • APP‐CTF Western blot of MDA‐MB‐231 cells treated with indicated concentration of GSIs for 16 h. • Band intensities of APP‐CTF with 0.1 μM GSIs were normalized for DMSO control group. Values are mean ± SD of three tests. Data information: Original blots are provided as source data. All band intensity data are derived from three independent experiments and are analyzed by one‐way ANOVA using GraphPad Prism6 software. All experiments were repeated three times.Source data are available online for this figure.

SMILES: CN1C(=O)[C@@H](NC(=O)[C@H](CCC(F)(F)F)[C@H](CCC(F)(F)F)C(N)=O)N=C(c2ccccc2)c2ccccc21 [BMS‐906024]
IC50 (SPPL2b): 28.3 nM
APP CTF increase (APP): > 15 times
concentration from which APP‐CTF process is inhibited (APP): ≥ 20 nM

SMILES: O=C(O)CC[C@H]1CC[C@@](c2cc(F)ccc2F)(S(=O)(=O)c2ccc(Cl)cc2)CC1 [MK‐0752]
APP CTF level / accumulation at 100 nM (APP): hard to see
APP CTF level / accumulation at 100 nM (APP; listed as MK): did not significantly increase CTF level
concentration from which APP‐CTF process is inhibited (APP): ≥ 500 nM

SMILES: CCC[C@H](N[C@H]1CCc2cc(F)cc(F)c2C1)C(=O)Nc1cn(C(C)(C)CNCC(C)(C)C)cn1 [PF‐3084014]
IC50 (SPPL2b): 1160 nM
APP CTF increase (APP): > 15 times
concentration from which APP‐CTF process is inhibited (APP): ≥ 20 nM

IC50 (SPPL2b): 72.8 nM
SMILES: CC(C)(C(=O)NCC(F)(F)C(F)(F)F)C(=O)N[C@@H]1C(=O)Nc2ccccc2-c2ccccc21 [RO4929097]
APP CTF increase (APP): > 15 times
concentration from which APP‐CTF process is inhibited (APP): ≥ 20 nM

SMILES: CC(C)[C@H](O)C(=O)N[C@@H](C)C(=O)N[C@@H]1C(=O)N(C)CCc2ccccc21 [Semagacestat]
APP CTF level / accumulation at 100 nM (APP): hard to see; also recorded: did not significantly increase CTF level
concentration from which APP‐CTF process is inhibited (APP): ≥ 500 nM

Source: publication PMC5494507, “γ‐Secretase inhibitors in cancer clinical trials are pharmacologically and functionally distinct” (EMBO Molecular Medicine, 2017)
